Assay [1] relates to Neisseria gonorrhoeae. The conditions noted are these: cited from earlier work.
The subject of assay [2] is Neisseria gonorrhoeae.
Description: Cultures were diluted (5X) into HFB. Each isolate culture was split into “treated” and “control” tubes.
During incubation, samples were collected for RNA sequencing at 5, 10, and 15 min (300 µL aliquot of sample was mixed into 600 µL of Qiagen RNA Protect Reagent (Qiagen, Hilden, Germany) for immediate RNA stabilization).
RNA was extracted using the Enzymatic Lysis of Bacteria protocol of the Qiagen RNeasy Mini Kit and processed according to the manufacturer’s protocol. DNA digestion was performed during extraction using the Qiagen RNase-Free DNase Set.
The quality of extracted RNA was measured using an Agilent 2200 TapeStation (Agilent, Santa Clara, CA, USA). Extracted RNA samples were prepared for sequencing using the NEBNext Ultra RNA Library Prep Kit for Illumina (New England Biolabs, Ipswitch, MA, USA) and the NEBNExt Multiplex Oligos for Illumina. […] Raw reads from the sequenced libraries were subjected to quality control to filter out low-quality reads and trim the adaptor sequences using Trimmomatic (version 0.35).
The reads were aligned to the FA 1090 strain of N. gonorrhoeae (NCBI Reference Sequence: NC_002946.2) using Bowtie2 (version 2.2.5) and quantified using the Subread package (version 1.5.0-p1). A pseudocount of 1 was added to the gene quantification; gene expression was defined in transcripts per million (TPM). […]

In brackets after ≈: the same amount, converted by molar mass.

Turning to `CCn1cc(C(=O)O)c(=O)c2cc(F)c(N3CCNC(C)C3)c(F)c21` (stereo not shown) [Lomefloxacin], in the assay with Neisseria gonorrhoeae [1], the “MIC Breakpoint, I (intermediate)” value was 0.25 to 1 µg/mL; the “MIC Breakpoint, R (resistant)” value was no less than 2 µg/mL; the “MIC Breakpoint, S (susceptible)” value was no more than 0.12 µg/mL.

As for Penicillin, in the assay with Neisseria gonorrhoeae [1], the “MIC Breakpoint, I (intermediate)” value is 0.12 to 1 µg/mL; the “MIC Breakpoint, R (resistant)” value is no less than 2 µg/mL; the “MIC Breakpoint, S (susceptible)” value is no more than 0.06 µg/mL.

Take `CO[C@@]1(NC(=O)CSCC#N)C(=O)N2C(C(=O)O)=C(CSc3nnnn3C)CS[C@@H]21` [Cefmetazole]: in the assay on Neisseria gonorrhoeae [1], the “MIC Breakpoint, I (intermediate)” value is listed as 4 µg/mL (≈ 8.48 µM); the “MIC Breakpoint, R (resistant)” value was no less than 8 µg/mL; the “MIC Breakpoint, S (susceptible)” value is on record as no more than 2 µg/mL.

Turning to `CCn1cc(C(=O)O)c(=O)c2cc(F)c(N3CCNCC3)nc21` [Enoxacin], in the assay with Neisseria gonorrhoeae [1], the “MIC Breakpoint, I (intermediate)” value was 1 µg/mL (≈ 3.12 µM); the “MIC Breakpoint, R (resistant)” value is given as no less than 2 µg/mL; the “MIC Breakpoint, S (susceptible)” value is given as no more than 0.5 µg/mL.

As for `CN[C@@H]1[C@H](O)[C@H](NC)[C@H]2O[C@@]3(O)C(=O)C[C@@H](C)O[C@H]3O[C@@H]2[C@H]1O` [Spectinomycin], in the assay with Neisseria gonorrhoeae [1], the “MIC Breakpoint, I (intermediate)” value was 64 µg/mL (≈ 193 µM); the “MIC Breakpoint, R (resistant)” value is reported as no less than 128 µg/mL; the “MIC Breakpoint, S (susceptible)” value is on record as no more than 32 µg/mL.

For `CC(C)(O/N=C(\C(=O)N[C@@H]1C(=O)N2C(C(=O)[O-])=C(C[n+]3ccccc3)CS[C@H]12)c1csc(N)n1)C(=O)O` [Ceftazidime], the “MIC Breakpoint, S (susceptible)” value in the assay on Neisseria gonorrhoeae [1] is given as no more than 0.5 µg/mL.

Turning to `CO/N=C(\C(=O)N[C@@H]1C(=O)N2C(C(=O)O)=C(COC(N)=O)CS[C@H]12)c1ccco1` [Cefuroxime], in the assay with Neisseria gonorrhoeae [1], the “MIC Breakpoint, I (intermediate)” value is 2 µg/mL (≈ 4.71 µM); the “MIC Breakpoint, R (resistant)” value was no less than 4 µg/mL; the “MIC Breakpoint, S (susceptible)” value is on record as no more than 1 µg/mL.

`CO/N=C(\C(=O)N[C@@H]1C(=O)N2C(C(=O)[O-])=C(C[N+]3(C)CCCC3)CS[C@H]12)c1csc(N)n1` [Cefepime]: the “MIC Breakpoint, S (susceptible)” value in the assay on Neisseria gonorrhoeae [1] is on record as no more than 0.5 µg/mL.

In the case of `CO/N=C(\C(=O)N[C@@H]1C(=O)N2C(C(=O)O)=C(C)CS[C@H]12)c1csc(N)n1` [Cefetamet], the “MIC Breakpoint, S (susceptible)” value with Neisseria gonorrhoeae [1] is recorded as no more than 0.5 µg/mL.

As to `CO/N=C(\C(=O)N[C@@H]1C(=O)N2C(C(=O)O)=C(CSc3nc(=O)c(=O)[nH]n3C)CS[C@H]12)c1csc(N)n1` [Ceftriaxone], the “MIC Breakpoint, S (susceptible)” value in the assay with Neisseria gonorrhoeae [1] is reported as no more than 0.25 µg/mL.

For `CO[C@@]1(NC(=O)Cc2cccs2)C(=O)N2C(C(=O)O)=C(COC(N)=O)CS[C@@H]21` [Cefoxitin], in the assay on Neisseria gonorrhoeae [1], the “MIC Breakpoint, I (intermediate)” value is 4 µg/mL (≈ 9.36 µM); the “MIC Breakpoint, R (resistant)” value was no less than 8 µg/mL; the “MIC Breakpoint, S (susceptible)” value is reported as no more than 2 µg/mL.

Turning to `CO/N=C(\C(=O)N[C@@H]1C(=O)N2C(C(=O)O)=CCS[C@H]12)c1csc(N)n1` [Ceftizoxime], the “MIC Breakpoint, S (susceptible)” value in the assay on Neisseria gonorrhoeae [1] is reported as no more than 0.5 µg/mL.

In the case of `CN1CCN(c2c(F)cc3c(=O)c(C(=O)O)cn(CCF)c3c2F)CC1` [Fleroxacin], in the assay with Neisseria gonorrhoeae [1], the “MIC Breakpoint, I (intermediate)” value is reported as 0.5 µg/mL (≈ 1.35 µM); the “MIC Breakpoint, R (resistant)” value is on record as no less than 1 µg/mL; the “MIC Breakpoint, S (susceptible)” value is reported as no more than 0.25 µg/mL.

On to `O=C(O)c1cn(C2CC2)c2cc(N3CCNCC3)c(F)cc2c1=O` [Ciprofloxacin, ciprofloxacin], for which the “transcriptional response in resistant isolates” value with Neisseria gonorrhoeae [2] (resistant isolates, all time points (0-15 min)) is recorded as “did not significantly respond”. Besides, the “expression response of the six candidate markers (porB, rpmB, tig, yebC, pilB, cysK)” value in the assay with Neisseria gonorrhoeae [2] (susceptible isolates, 15 min exposure) is “downregulation”. For the same compound, in the assay on Neisseria gonorrhoeae [1] (Neisseria gonorrhoeae), the “resistant MIC breakpoint” value is on record as 1.00 microgram/mL and the “susceptible MIC breakpoint” value is recorded as 0.06 microgram/mL. Also, in the assay with Neisseria gonorrhoeae [1], the “MIC Breakpoint, I (intermediate)” value was 0.12 to 0.5 µg/mL; the “MIC Breakpoint, R (resistant)” value is recorded as no less than 1 µg/mL; the “MIC Breakpoint, S (susceptible)” value was no more than 0.06 µg/mL.

With `CO/N=C(\C(=O)N[C@@H]1C(=O)N2C(C(=O)O)=C(COC(C)=O)CS[C@H]12)c1csc(N)n1` [Cefotaxime], the “MIC Breakpoint, S (susceptible)” value in the assay on Neisseria gonorrhoeae [1] is on record as no more than 0.5 µg/mL.
